Source: patent US11667638B2, “4-substitued cytisine analogues” (The University of Bristol, priority 2016, dated 2023)
pKi: −log10 of the molar value.

Key:
Rat α7 = Rat α7 (Rattus norvegicus (Rat), UniProt Q05941); format: binding; conditions: range printed after the value
Method: (§1) The ligand binding data were analyzed by means of nonlinear regression using Prism version 5 (GraphPad Software, Inc., La Jolla, Calif.). The Ki values were calculated from the experimental IC50 values using the Cheng-Prusoff equation for a single population of competitive sites: Ki=IC50/[1+(L/Kd)], where L is the concentration of radioligand used in each experiment and the Kd values were determined by saturation binding experiment. All of the assays were performed in duplicate and repeated at least two-three times.

(α4)2(β2)3 nAChRs = (α4)2(β2)3 nAChRs (Homo sapiens (Human), UniProt P17787+P43681); test: Maximal gating efficacy on (α4)2(β2)3 nAChRs in Xenopus oocytes, two electrode voltage clamp; format: cell-based; conditions: (α4)2(β2)3, high sensitivity receptors; maximal current relative to 1 mM ACh
Sequence of (α4)2(β2)3 nAChRs (P43681 29-627): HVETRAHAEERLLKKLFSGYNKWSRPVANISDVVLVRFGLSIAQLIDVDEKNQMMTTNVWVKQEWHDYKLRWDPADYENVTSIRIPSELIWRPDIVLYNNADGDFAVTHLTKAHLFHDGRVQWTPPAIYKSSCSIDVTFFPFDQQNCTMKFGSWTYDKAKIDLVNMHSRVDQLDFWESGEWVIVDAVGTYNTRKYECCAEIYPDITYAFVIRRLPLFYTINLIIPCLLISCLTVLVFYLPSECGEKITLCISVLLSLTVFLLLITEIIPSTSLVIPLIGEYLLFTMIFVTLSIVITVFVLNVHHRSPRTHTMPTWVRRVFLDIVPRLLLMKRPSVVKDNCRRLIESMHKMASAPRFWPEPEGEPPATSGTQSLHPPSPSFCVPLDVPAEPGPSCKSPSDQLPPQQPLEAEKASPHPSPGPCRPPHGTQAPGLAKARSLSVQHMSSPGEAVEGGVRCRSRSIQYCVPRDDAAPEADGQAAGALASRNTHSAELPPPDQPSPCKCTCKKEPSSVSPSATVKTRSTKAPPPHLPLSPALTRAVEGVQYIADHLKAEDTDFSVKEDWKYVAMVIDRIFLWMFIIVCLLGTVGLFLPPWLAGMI
Sequence of (α4)2(β2)3 nAChRs (P17787 26-502): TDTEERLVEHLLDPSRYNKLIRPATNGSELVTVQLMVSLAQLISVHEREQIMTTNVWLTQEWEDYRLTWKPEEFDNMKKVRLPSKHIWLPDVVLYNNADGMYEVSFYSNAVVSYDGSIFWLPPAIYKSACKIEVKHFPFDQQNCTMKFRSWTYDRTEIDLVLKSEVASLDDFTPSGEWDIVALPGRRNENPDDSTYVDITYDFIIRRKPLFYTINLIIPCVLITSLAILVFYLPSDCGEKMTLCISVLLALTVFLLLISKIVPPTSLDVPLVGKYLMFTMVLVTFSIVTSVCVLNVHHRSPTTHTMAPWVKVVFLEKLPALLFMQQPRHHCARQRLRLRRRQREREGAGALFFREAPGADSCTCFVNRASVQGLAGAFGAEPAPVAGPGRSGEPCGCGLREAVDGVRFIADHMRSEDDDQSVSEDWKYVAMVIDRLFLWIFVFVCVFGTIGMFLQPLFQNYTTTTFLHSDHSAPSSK
Method: (§2) Compounds of the invention were tested for effects on the function of human α4β2, α3β4 and α7 nicotinic acetylcholine receptors (nAChRs) expressed heterologously in Xenopus oocytes. […] Expression in oocytes was obtained as follows: pCI (Promega, UK) plasmid containing human α4, β2, β4 or α7 complementary DNA were injected as previously described (Moroni et al., 2006). To express (α4)3(β2)2 nACh receptors, a mixture of 10α4:1β2 cDNAs was injected into the nucleus of oocytes, whereas for (α4)2(β2)3 receptors the cDNA ratio injected was 1α4:10β2.
(§3) Functional studies: Recordings were performed manually using a Geneclamp amplifier (Molecular Devices, USA) or using an automated HiClamp system. In both cases the oocytes were impaled with two electrodes filled with 3 M KCl and the cells were held at −60 mV throughout the experiments.
(§4) Oocyte isolation and two-electrode voltage-clamp recordings on oocytes were carried out as previously described (Moroni et al., 2006; Carbone et al., 2009). […] A minimum interval of 5 min was allowed between agonist applications to ensure reproducible recordings. Oocytes were exposed to increasing concentrations of the compounds until no further increases in the response amplitude were obtained. This concentration was taken as the concentration that causes maximal responses on the receptors tested. The data summarised in Tables 1-4 were obtained from at least 5 experiments carried out on oocytes obtained from at least three different donors.
Maximal gating efficacy of compounds on (α4)2(β2)3 receptors (high sensitivity receptors): The concentration of the compounds causing maximal activation of the (α4)2(β2)3 nAChRs expressed heterologously in Xenopus oocytes was determined using two electrode voltage clamping.

Human α7 = Human α7 (Homo sapiens (Human), UniProt P36544); format: binding; conditions: read-out: Human α7 K(i)
Sequence of Human α7 (P36544 23-502 limits assumed): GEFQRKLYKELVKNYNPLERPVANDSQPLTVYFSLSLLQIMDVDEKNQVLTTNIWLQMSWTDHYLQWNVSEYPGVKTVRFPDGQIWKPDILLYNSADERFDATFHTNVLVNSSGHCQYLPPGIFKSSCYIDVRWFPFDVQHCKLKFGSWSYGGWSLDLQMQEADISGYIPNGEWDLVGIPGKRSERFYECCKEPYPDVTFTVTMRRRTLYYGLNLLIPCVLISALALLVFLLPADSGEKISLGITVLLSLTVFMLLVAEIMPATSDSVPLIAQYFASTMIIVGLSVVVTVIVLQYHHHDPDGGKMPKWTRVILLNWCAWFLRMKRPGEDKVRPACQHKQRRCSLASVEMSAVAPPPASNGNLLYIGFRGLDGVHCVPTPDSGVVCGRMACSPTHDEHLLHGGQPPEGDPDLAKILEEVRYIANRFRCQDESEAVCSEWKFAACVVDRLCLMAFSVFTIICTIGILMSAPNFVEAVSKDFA

(α4)3(β2)2 nAChRs = (α4)3(β2)2 nAChRs (Homo sapiens (Human), UniProt P17787+P43681); test: Maximal gating efficacy on (α4)3(β2)2 nAChRs in Xenopus oocytes, two electrode voltage clamp; format: cell-based; conditions: (α4)3(β2)2, low sensitivity stoichiometry; maximal current relative to 1 mM ACh
Sequence of (α4)3(β2)2 nAChRs (P43681 29-627): as the sequence (P43681 29-627) above
Sequence of (α4)3(β2)2 nAChRs (P17787 26-502): as the sequence (P17787 26-502) above
Method: as §2, §3, §4
Maximal gating efficacy of the compounds: The concentration of the compounds of the invention causing maximal activation of the (α4)3(β2)2 nAChRs expressed heterologously in Xenopus oocytes was determined using two electrode voltage clamping.

α4β2 nAChR = α4β2 nAChR (Homo sapiens (Human), UniProt P17787+P43681); format: binding
Sequence of α4β2 nAChR (P43681 29-627 limits assumed): as the sequence (P43681 29-627) above
Sequence of α4β2 nAChR (P17787 26-502 limits assumed): as the sequence (P17787 26-502) above
Method: (§5) HEK 293 cells were grown in Dulbecco's modified Eagle medium supplemented with 10% fetal bovine serum, 1% L-Glutamine, 100 units/ml penicillin G, and 100 μg/streptomycin in a humidified atmosphere containing 10% CO2. The cDNAs encoding α3 and β4 or α4 and β2 (were transfected into the HEK 293 cells at 30% confluency). The cell transfections were carried out in 100 mm Petri dishes using 30 μL of JetPEI™ (Polypus, France) (1 mg/ml, pH 7.2) and 3 μg of each cDNA. After 24 h transfection, the cells were collected, washed with PBS by centrifugation, and used for binding analysis.
(§6) [^3H]-epibatidine saturation binding experiments to HEK transfected α3β4 or α4β2 receptors were performed by means of overnight incubation at 4° C. at concentrations ranging from 0.005 to 1 nM in a buffer containing 50 mM Tris-HCl, pH 7, 150 mM NaCl, 5 mM KCl, 1 mM MgCl2, 2.5 mM CaCl2 and 2 mg/ml BSA, in the presence (aspecific binding) or absence (total binding) of 100 nM cold epibatidine. Specific ligand binding was defined as total binding minus the binding in the presence of 100 nM cold epibatidine.
(§7) After incubation, the membranes of HEK cells transfected with α4β2* or α3β4 subtypes were washed by filtration on GFC filters with ice-cold PBS. The GFC filters were pre-soaked in polyethylenimine and filtered through an harvester apparatus. [^3H]-epibatidine binding was determined by means of liquid scintillation counting in a beta counter.
as §1

α3β4 nAChR = α3β4 nAChR (Homo sapiens (Human), UniProt P30926+P32297); format: binding; conditions: human α3β4 in HEK 293, 0.5 nM [3H]-epibatidine; range printed after the value
Sequence of α3β4 nAChR (P32297 32-505 limits assumed): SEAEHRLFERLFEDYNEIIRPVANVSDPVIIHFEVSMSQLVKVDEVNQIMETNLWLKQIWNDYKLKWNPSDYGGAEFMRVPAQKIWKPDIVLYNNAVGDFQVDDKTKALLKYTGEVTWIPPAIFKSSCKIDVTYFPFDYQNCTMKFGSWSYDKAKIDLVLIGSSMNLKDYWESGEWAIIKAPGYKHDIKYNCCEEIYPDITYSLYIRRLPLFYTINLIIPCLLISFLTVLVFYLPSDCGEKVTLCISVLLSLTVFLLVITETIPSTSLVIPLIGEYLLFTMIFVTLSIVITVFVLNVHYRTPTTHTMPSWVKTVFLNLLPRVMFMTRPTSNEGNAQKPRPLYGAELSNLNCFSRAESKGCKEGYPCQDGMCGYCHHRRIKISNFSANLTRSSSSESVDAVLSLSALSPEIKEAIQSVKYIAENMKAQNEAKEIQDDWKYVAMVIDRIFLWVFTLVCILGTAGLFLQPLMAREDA
Sequence of α3β4 nAChR (P30926 22-498 limits assumed): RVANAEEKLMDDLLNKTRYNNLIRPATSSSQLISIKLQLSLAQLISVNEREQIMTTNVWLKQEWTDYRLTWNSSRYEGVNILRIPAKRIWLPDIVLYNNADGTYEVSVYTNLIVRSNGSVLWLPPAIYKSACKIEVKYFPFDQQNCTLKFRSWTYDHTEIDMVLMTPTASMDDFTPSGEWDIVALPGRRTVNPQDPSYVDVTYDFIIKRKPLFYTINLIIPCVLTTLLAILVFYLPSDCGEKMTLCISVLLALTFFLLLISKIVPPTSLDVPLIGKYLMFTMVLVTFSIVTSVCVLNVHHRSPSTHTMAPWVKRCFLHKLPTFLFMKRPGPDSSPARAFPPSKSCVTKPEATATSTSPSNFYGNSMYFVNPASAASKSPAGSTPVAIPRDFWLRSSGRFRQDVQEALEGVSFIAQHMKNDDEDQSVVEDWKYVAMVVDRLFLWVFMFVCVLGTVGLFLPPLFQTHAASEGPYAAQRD
Method: as §5, §6, §7, §1

α3β4 nAChRs = α3β4 nAChRs (Homo sapiens (Human), UniProt P30926+P32297); test: Maximal gating efficacy on α3β4 nAChRs in Xenopus oocytes, two electrode voltage clamp; format: cell-based; conditions: maximal current relative to 1 mM ACh
Sequence of α3β4 nAChRs (P32297 32-505): as the sequence (P32297 32-505 limits assumed) above
Sequence of α3β4 nAChRs (P30926 22-498): as the sequence (P30926 22-498 limits assumed) above
Method: as §2, §3, §4
Maximal gating efficacy of the compounds on α3β4 nAChRs: The concentration of the compounds causing maximal activation of α3β4 nAChRs expressed heterologously in Xenopus oocytes was determined using two electrode voltage clamping.

Sequence of Rat α7 (Q05941 23-502 limits assumed): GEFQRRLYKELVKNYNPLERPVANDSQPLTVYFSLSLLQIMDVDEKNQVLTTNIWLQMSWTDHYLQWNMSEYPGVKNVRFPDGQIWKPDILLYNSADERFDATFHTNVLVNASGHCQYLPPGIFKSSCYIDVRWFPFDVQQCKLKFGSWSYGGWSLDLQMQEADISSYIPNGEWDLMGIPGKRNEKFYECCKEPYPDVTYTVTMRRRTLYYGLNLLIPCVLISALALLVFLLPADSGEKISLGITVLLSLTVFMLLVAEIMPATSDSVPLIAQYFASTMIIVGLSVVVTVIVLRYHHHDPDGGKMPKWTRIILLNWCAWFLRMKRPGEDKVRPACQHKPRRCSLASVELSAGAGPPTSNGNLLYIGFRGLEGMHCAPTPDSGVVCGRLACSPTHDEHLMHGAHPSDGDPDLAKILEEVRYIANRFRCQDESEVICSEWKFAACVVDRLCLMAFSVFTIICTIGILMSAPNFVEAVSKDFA

In the case of O=c1cccc2n1C[C@@H]1CNC[C@H]2C1 [Cytisine, cytisine], the pKi (Rat α7) was 6.18, the “Relative efficacy (ACh)” value ((α4)2(β2)3 nAChRs) was 0.02 ± 0.001 and the pKi (Human α7) was 6.16. The “Relative efficacy (ACh)” value ((α4)3(β2)2 nAChRs) was 0.19 ± 0.07, the pKi (α4β2 nAChR; human α4β2 in HEK 293, 0.25 nM [3H]-epibatidine, range printed after the value) was 8.90 and the “Ratio α3β4/α4β2” value (α4β2 nAChR; ratio of Ki values) was 81.1. For the same compound, the pKi (α3β4 nAChR) was 6.99 and the “Relative efficacy (ACh)” value (α3β4 nAChRs) was 0.54 ± 0.01.
